Active and inactive are the calls of the source. The calls are words filed in the database; no cut-off is given here.
Assays:
Chikungunya virus [1] = assay: (§1) Antiviral activity against CHIKV LR2006-OPY1 infected in Asian tiger mosquito C6/36 cells assessed as reduction in virus titer in cell supernatant by measuring inhibition of plaque formation using Vero cells and measured following infection of supernatants with Vero cells for 48 hrs pi by serial dilution plaque based methylene blue dye analysis; format: functional
Chikungunya virus [2] = assay: Antiviral activity against CHIKV infected in IFN regulatory factor 3 telomerized human fibroblast cells assessed as reduction in virus titer in cell supernatant by measuring inhibition of plaque formation using Vero cells […] followed by infected with virus incubated for 24 hrs and measured following infection of supernatants with Vero cells for 48 hrs by plaque based …; format: functional; conditions: time 72 hrs
Onyong-nyong virus = assay: as §1, with “O'nyong-nyong virus” for “CHIKV LR2006-OPY1”; format: functional
Chikungunya virus [3] = assay: Antiviral activity against resistance mutation induced CHIKV-117/119 infected in […] cells assessed as viral infectivity in Vero cells at 10 uM measured up to 24 hrs of post infection by supernatant was quantified by plaque assay; format: functional, organism-based; conditions: time hrs <=24
Chikungunya virus [4] = assay: Antiviral activity against resistance mutation induced CHIKV-117 infected in […] cells assessed as viral infectivity in Vero cells at 10 uM measured up to 24 hrs of post infection by supernatant was quantified by plaque assay; format: functional, organism-based; conditions: time hrs <=24
Mayaro virus = assay: as §1, with “Mayaro virus TRVL” for “CHIKV LR2006-OPY1”; format: functional
Chikungunya virus [5] = assay: (§2) Antiviral activity against CHIKV infected in human NHDF cells assessed as reduction in virus titer in cell supernatant by measuring inhibition of plaque formation using Vero cells at 10 uM pretreated with NHDF cells followed by infected with virus incubated for 24 hrs and measured following infection of supernatants with Vero cells for 48 hrs by plaque based methylene blue dye analysis; format: functional; conditions: time 72 hrs
Chikungunya virus [6] = assay: Antiviral activity against CHIKV-nLuc RNA transfected NHDF cells assessed as decrease in Nano-luc signal at 20 uM pretreated 24 hrs before transfection in presence of guanosine measured after 24 hrs by Nano-Glo luciferase assay; format: functional, organism-based
Chikungunya virus [7] = assay: Antiviral activity against wild type CHIKV-117 infected in […] cells assessed as viral infectivity in Vero cells at 10 uM measured up to 24 hrs of post infection by supernatant was quantified by plaque assay; format: functional; conditions: time hrs <=24
Chikungunya virus [8] = assay: as §2, with “cells” for “cells at 10 uM”; format: functional, organism-based
Chikungunya virus [9] = assay: Antiviral activity against CHIKV-nLuc RNA transfected NHDF cells assessed as decrease in Nano-luc signal at 20 uM pretreated 24 hrs before transfection in presence of uridine measured after 24 hrs by Nano-Glo luciferase assay; format: functional, organism-based; conditions: time 48.0 hrs
Chikungunya virus [10] = format: functional, organism-based; conditions: 181-25, NIH3T3, dose 10.0 µM
Chikungunya virus [11] = format: functional, organism-based; conditions: 181-25, NHDF, dose 20.0 µM, time 13.0 hrs
Chikungunya virus [12] = format: functional, organism-based; conditions: 181-25, NHDF, dose 20.0 µM, time 13.0 hrs; remark: listed apart in the source
[13] = tested on: Venezuelan equine encephalitis virus; assay: as §1, with “Venezuelan equine encephalitis virus TC83” for “CHIKV LR2006-OPY1”; format: functional
[14] = molecular target: Dihydroorotate dehydrogenase (quinone), mitochondrial (Homo sapiens, UniProt Q02127)
Chikungunya virus [15] = assay: Antiviral activity against resistance mutation induced CHIKV-119 infected in […] cells assessed as viral infectivity in Vero cells at 10 uM measured up to 24 hrs of post infection by supernatant was quantified by plaque assay; format: functional, organism-based; conditions: time hrs <=24
Chikungunya virus [16] = assay: as §1, with “37997” for “LR2006-OPY1”; format: functional; conditions: Chikungunya virus, 37997, C6
Chikungunya virus [17] = assay: as §1, with “99659” for “LR2006-OPY1”; format: functional; conditions: Chikungunya virus, 99659, C6
Chikungunya virus [18] = assay: Antiviral activity against CHIKV-nLuc RNA transfected NHDF cells assessed as decrease in CHIKV RNA at 10 uM pretreated 1 hr before transfection measured after 12 hrs by Nano-Glo luciferase assay; format: functional, organism-based; conditions: time 13.0 hrs
NHDF = assay: (§3) Cytotoxicity against human NHDF cells assessed as cell viability measured after 24 hrs by Cell Titer Glo luminescent assay; format: cell-based; conditions: nhdf, 24 h
Chikungunya virus [19] = assay: as §2, with “mouse NIH3T3” for “human NHDF”, “cells” for “cells at 10 uM”, “NIH3T3” for “NHDF”; format: functional; conditions: dose 10 µM
Chikungunya virus [20] = format: functional; conditions: 181-25, C6, time 48 hrs
[21] = as §1, with “Ross river virus” for “CHIKV LR2006-OPY1”; format: functional; conditions: La Crosse virus
Chikungunya virus [22] = format: functional, organism-based; conditions: 181-25, NHDF, dose 20.0 µM, time 13.0 hrs; remark: listed apart in the source
West Nile virus = assay: as §1, with “West nile virus” for “CHIKV LR2006-OPY1”, “HEK293” for “Asian tiger mosquito C6/36”, “at 10 uM” for “and”; format: functional
Una virus = assay: as §1, with “Una virus MAC150” for “CHIKV LR2006-OPY1”; format: functional
[23] = tested on: Venezuelan equine encephalitis virus; assay: (§4) Antiviral activity against Venezuelan equine encephalitis virus TC83 infected in human NDHF cells assessed as reduction in virus titer in cell supernatant by measuring inhibition of plaque formation using Vero cells at 10 uM measured following infection of supernatants with Vero cells for 48 hrs pi by serial dilution plaque based methylene blue dye analysis; format: functional, NHDF
Chikungunya virus [24] = format: functional, organism-based; conditions: 181-25, Vero, dose 10.0 µM, time 20.0 hrs
dengue virus type 2 = assay: as §4, with “DENV2” for “Venezuelan equine encephalitis virus TC83”, “HEK293” for “human NDHF”; format: functional
[25] = Cytotoxicity against HEK293 cells at 10 uM; format: cell-based; conditions: human
Chikungunya virus [26] = format: functional, organism-based; conditions: 181-25, NHDF, dose 20.0 µM, time 13.0 hrs; remark: listed apart in the source
[27] = as §3; format: cell-based; conditions: NHDF cells

Sequence of Dihydroorotate dehydrogenase (quinone), mitochondrial (Q02127 whole entry): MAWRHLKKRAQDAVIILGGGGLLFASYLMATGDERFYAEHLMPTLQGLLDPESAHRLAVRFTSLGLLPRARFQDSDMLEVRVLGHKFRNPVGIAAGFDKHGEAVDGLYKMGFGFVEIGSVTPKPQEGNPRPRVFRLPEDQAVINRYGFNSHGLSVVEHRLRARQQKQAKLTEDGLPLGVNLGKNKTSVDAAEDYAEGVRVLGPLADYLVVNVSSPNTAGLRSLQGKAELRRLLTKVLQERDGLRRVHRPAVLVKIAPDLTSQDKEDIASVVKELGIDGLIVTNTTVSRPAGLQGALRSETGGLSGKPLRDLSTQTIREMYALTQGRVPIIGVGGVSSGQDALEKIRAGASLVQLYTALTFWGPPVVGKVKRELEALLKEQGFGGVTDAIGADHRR

COc1cc2c(cc1NC(=O)c1ccc(C(C)(C)C)cc1)CCCC2
EC90 (Chikungunya virus [1]): 400 nM | EC90 (Chikungunya virus [2]): 1030 nM | EC90 (Onyong-nyong virus): 300 nM | Activity (Chikungunya virus [3]): Active | Activity (Chikungunya virus [4]): Active | EC90 (Mayaro virus): 5100 nM | log(activity) (Chikungunya virus [5]): 2.5 | Activity (Chikungunya virus [6]): Active | log(activity) (Chikungunya virus [7]): 1.5 | EC50 (Chikungunya virus [8]): 1450 nM | Activity (Chikungunya virus [9]): inactive | Activity (Chikungunya virus [10]): Active | inhibition (Chikungunya virus [11]): Active | inhibition (Chikungunya virus [12]): Active | EC90 [13]: 2100 nM | IC50 [14]: 5000 nM | Activity (Chikungunya virus [15]): Active | EC90 (Chikungunya virus [16]): 3390 nM | EC90 (Chikungunya virus [17]): 1000 nM | inhibition (Chikungunya virus [18]): Active | CC50 (NHDF): 169000 nM | EC90 (Chikungunya virus [19]): 3160 nM | EC90 (Chikungunya virus [20]): 1450 nM | EC90 [21]: 320 nM

COc1cc2c(cc1NC(=O)c1ccc(C(C)(C)C)cc1)CCCCC2
inhibition (Chikungunya virus [22]): Active | EC90 (Chikungunya virus [1]): 150 nM | EC90 (Chikungunya virus [2]): 4870 nM | EC90 (Onyong-nyong virus): 180 nM | Activity (Chikungunya virus [3]): Active | Activity (Chikungunya virus [4]): Active | EC90 (Mayaro virus): 250 nM | log(activity) (Chikungunya virus [5]): 4 | Activity (Chikungunya virus [6]): Active | log(activity) (West Nile virus): 2 | EC90 (Una virus): 340 nM | log(activity) [23]: 2.7 | Activity (Chikungunya virus [9]): inactive | inhibition (Chikungunya virus [11]): Active | inhibition (Chikungunya virus [12]): Active | EC90 [13]: 2900 nM | inhibition (Chikungunya virus [24]): Active | IC50 [14]: 3500 nM | Activity (Chikungunya virus [15]): Active | EC90 (Chikungunya virus [16]): 180 nM | EC90 (Chikungunya virus [17]): 780 nM | inhibition (Chikungunya virus [18]): Active | log(activity) (dengue virus type 2): 1.5 | CC50 [25]: > 30000 nM | inhibition (Chikungunya virus [26]): Active | CC50 at 24 h [27]: 78500 nM | EC90 (Chikungunya virus [19]): 1010 nM | EC90 [21]: 210 nM
